Experimental data published in PMC5839262, “Inhibitors of bacterial protease enzymes for periodontal therapy” (Clinical and Experimental Dental Research, 2015).
Like-named read-outs stand apart in the source and are kept apart here. Where a SMILES comes first, the peptide text is derived from it.

Assays:
Rgp = Rgp gingipain activity, fluorescent assay with benzoyl‐R‐AMC in Pg cell suspensions; format: biochemical, Porphyromonas gingivalis; conditions: for IC50: 0.2 mM benzoyl‐R‐AMC, 15 min, read-out: concentration causing 50% inhibition of Rgp activity; for effect on Rgp activity: concentrations up to 1 × 10^−4 M, results not shown
Experimental: (§1) To obtain culture media for measuring secreted gingipain activity, we removed bacteria by centrifugation followed by filtration through 0.2‐µm filters, and we supplemented the medium with 0.2 mM PMSF to block any serine‐protease activity. To measure cell‐associated activity, we resuspended bacteria to an optical density of 4.0 at 600 nm (4 × 10^9 CFU/mL) in DPBS, and PMSF was added. Portions of the media and bacterial suspensions were frozen in liquid nitrogen and stored at −80°C.
(§2) The gingipain assay was adapted from procedures of Chen et al. (2001) and Suwannakul et al. (2010). To measure activity of Rgp or Kgp, respectively, we incubated various volumes of media or bacterial suspensions 10 min at 37°C in DPBS with 1 mM L‐cysteine to ensure that the gingipain active‐site cysteine was in the reduced, active form, and then we added the substrate benzoyl‐R‐AMC or Boc‐VLK‐AMC to give 0.2 mM substrate in a final volume of 0.1 mL. The incubation was continued 15 min at 37°C in black multiwell plates. Incubations were stopped by adding 50 μL of 1.5 mM TLCK, an irreversible inhibitor of serine and cysteine proteases. Fluorescence was measured with a fluorescence plate reader (SpectraMax Gemini EM, Molecular Devices, Sunnyvale, CA) with excitation at 365 nm and emission at 460 nm to measure hydrolysis of the substrate and release of the fluorescent product.
(§3) To measure effects of inhibitors on Rgp or Kgp activity, we diluted conditioned media fivefold or bacterial suspensions fiftyfold with DPBS, and we selected a diluted sample volume of 20 μL or less that gave a strong fluorescent signal, and we incubated the sample 15 min in DPBS with 0.2 mM substrate and various levels of protease inhibitors.

Kgp = Kgp (Porphyromonas gingivalis, UniProt B2RLK2); test: Kgp gingipain activity, fluorescent assay with Boc‐VLK‐AMC in Pg cell suspensions; format: biochemical
Experimental: as §1, §2, §3

Pg = test: Bactericidal activity, LIVE/DEAD BacLight viability assay; format: cell-based, Porphyromonas gingivalis; conditions: 1 h; for bactericidal activity: both Pg strains, concentrations up to 1 × 10^−4 M
Experimental: Pg bacteria were collected by centrifugation and diluted to 2 × 10^8 CFU/mL in isotonic saline at 25°C. Pg (10^8 CFU/mL) were then incubated with various concentrations of protease inhibitors at 37°C with gentle mixing in 0.1 mL incubation mixtures in black multiwell plates inside AnaeroGen™ Compact pouches (Oxoid Corporation, Nepean, ON, Canada) to lower the oxygen (O2) concentration. After 1 h, the number of live bacteria per milliliter was measured with a LIVE/DEAD BacLight™ Bacterial Viability kit (Invitrogen, Inc., Carlsbad, CA). The assay determines the number of live bacteria based on entry of the fluorescent dyes SYTO 9 and propidium iodide into the bacteria. SYTO 9 enters both live and dead bacteria and binds to DNA, giving a green fluorescence. Propidium iodide enters only dead bacteria and binds to DNA, giving a red fluorescence. A 0.1 mL portion of 2× BacLight dye mixture was added to the bacteria in the wells, and the plate was incubated 15 min at 37°C in an AnaeroGen™ pouch in the dark. Immediately following removal of the plate from the pouch, fluorescence was measured in a fluorescence plate reader with excitation at 485 nm. Green fluorescence of SYTO 9 was measured at 538 nm, and red fluorescence of propidium iodide was measured at 612 nm. Standard curves were prepared with various ratios of live and dead bacteria, and the number of live bacteria was determined from the ratio of green to red fluorescence. Control experiments were performed in which Pg viability was measured by diluting, plating on blood agar plates, and counting colonies after 1 to 2 weeks at 37°C under anaerobic conditions to confirm that the plating and fluorescent assays provided similar results. Toxicity of the protease inhibitors to E. coli was also measured. Assay conditions were the same as for Pg except that incubations were in air.

Water solubility = format: physicochemical; conditions: stated in discussion
cultured human cells = tested on: cultured human cells; parameters: method as in Kadowaki et al., 2004; Kataoka et al., 2014; conditions: ref Kadowaki et al., 2004; Kataoka et al., 2014; cited from earlier work
E. coli = test: Bactericidal activity, LIVE/DEAD BacLight viability assay; format: cell-based, Escherichia coli; conditions: 1 h
Experimental: Escherichia coli strain 43827 was purchased from the American Type Culture Collection and grown in TSB overnight with shaking in air at 37°C. Suspensions were serially diluted in saline and plated on TSB agar to determine CFU per milliliter.
Pg bacteria were collected by centrifugation and diluted to 2 × 10^8 CFU/mL in isotonic saline at 25°C. Pg (10^8 CFU/mL) were then incubated with various concentrations of protease inhibitors at 37°C with gentle mixing in 0.1 mL incubation mixtures in black multiwell plates inside AnaeroGen™ Compact pouches (Oxoid Corporation, Nepean, ON, Canada) to lower the oxygen (O2) concentration. After 1 h, the number of live bacteria per milliliter was measured with a LIVE/DEAD BacLight™ Bacterial Viability kit (Invitrogen, Inc., Carlsbad, CA). […] SYTO 9 enters both live and dead bacteria and binds to DNA, giving a green fluorescence. Propidium iodide enters only dead bacteria and binds to DNA, giving a red fluorescence. […] Immediately following removal of the plate from the pouch, fluorescence was measured in a fluorescence plate reader with excitation at 485 nm. Green fluorescence of SYTO 9 was measured at 538 nm, and red fluorescence of propidium iodide was measured at 612 nm. Standard curves were prepared with various ratios of live and dead bacteria, and the number of live bacteria was determined from the ratio of green to red fluorescence. […]

cathepsin B = tested on: cathepsin B; parameters: method as in McConnell et al., 1993; conditions: ref McConnell et al., 1993; cited from earlier work

SMILES: CC(C)C[C@H](NC(=O)[C@H]1O[C@@H]1C(=O)O)C(=O)NCCCCN=C(N)N (relative stereo) [E64, trans‐epoxysuccinyl‐L‐leucylamido‐(4‐guanidino)butane]
- concentration causing 90% inhibition of Rgp activity (Rgp; Pg 33277 cell suspensions): 1 mM
- IC50 (Rgp; Pg 33277 cell suspensions): 50000 nM
- effect on Kgp activity (Kgp; any concentration tested, Pg 33277 cell suspensions): no effect

SMILES: CN(C)C(=O)[C@H](CCCCN)NC(=O)C(=O)[C@H](CCCNC(=N)N)NC(=O)[C@H](CCCCN)NC(=O)OCc1ccccc1 [KYT‐1, carbobenzoxy‐Lys‐Arg‐CO‐Lys‐N(CH3)2]
- IC50 (Rgp; Pg 33277 cell suspensions): 2 nM
- difference in concentrations causing 50% inhibition of Rgp and Kgp (Rgp; Rgp versus Kgp, cell suspensions): 10,000 fold
- IC50 (Kgp): 20000 nM
- bactericidal activity (Pg): not bactericidal
- water solubility (Water solubility): water soluble
- toxicity to cultured human cells (cultured human cells): non‐toxic

SMILES: CN(NC(=O)CC[C@H](NC(=O)OCc1ccccc1)C(=O)N[C@@H](CCCCN)C(=O)C(=O)NCc1ccccc1)c1ccccc1 [KYT‐36, carbobenzoxy‐Glu(NHN(CH3)Ph)‐Lys‐CO‐NHCH2Ph]
- effect on Rgp activity (Rgp): did not inhibit Rgp
- IC50 (Kgp): 1 nM
- bactericidal activity (Pg): not bactericidal
- water solubility (Water solubility): water soluble
- toxicity to cultured human cells (cultured human cells): non‐toxic

SMILES: NC(N)=NCCC[C@H](NC(=O)[C@@H]1CCCN1C(=O)[C@H](N)Cc1ccccc1)C(=O)CCl [PPACK, D‐Phe‐Pro‐Arg‐chloromethylketone]
- IC50 (Rgp; Pg 33277 cell suspensions): 2 nM
- IC50 (Kgp; Pg 33277 cell suspensions, 0.2 mM Boc‐VLK‐AMC, 15 min, read-out: concentration causing 50% inhibition of Kgp activity): 20 nM

SMILES: Cc1cc(C)c(C(=O)OCC(=O)[C@H](CCCCN)NC(=O)[C@H](Cc2ccccc2)NC(=O)OCc2ccccc2)c(C)c1 [Z‐FK‐ck, Z‐Phe‐Lys‐2,4,6‐trimethylbenzoyloxy‐methylketone]
- IC50 (Rgp; Pg 33277 cell suspensions): 2000 nM
- IC50 (Kgp): 0.5 nM
- concentration causing 50% loss of viability (Pg; Pg 10^8 CFU/mL, 37°C, low oxygen): 30 µM
- bactericidal activity (Pg): significant bactericidal activity
- concentration causing 50% loss of viability (E. coli; 37°C, in air): 30 µM
- bactericidal activity (E. coli; concentrations up to 1 × 10^−4 M): significant bactericidal activity

SMILES: CC(=O)N[C@@H](CC(C)C)C(=O)N[C@H](C(=O)N[C@H](C=O)CCCCN)C(C)C [cathepsin B inhibitor II, Ac‐Leu‐Val‐Lys‐aldehyde] (Ac-Leu-Val-Lys-aldehyde)
- effect on Rgp activity (Rgp): no effect
- IC50 (Kgp): 50 nM
- effectiveness as inhibitor of cathepsin B relative to leupeptin (cathepsin B): ~100 times

SMILES: CC(=O)N[C@@H](CC(C)C)C(=O)N[C@@H](CC(C)C)C(=O)N[C@H](C=O)CCCNC(=N)N [leupeptin, Ac‐Leu‐Leu‐Arg‐aldehyde]
- IC50 (Rgp; Pg 33277 cell suspensions): 20 nM
- effect on Kgp activity (Kgp; concentrations up to 1 × 10^−4 M, results not shown): no effect
